The numbers were not newly measured in US20180008675A1, “USE OF URODILATING FOR PREPARING A MEDICAMENT FOR TREATMENT OF CARDIOVASCULAR, RENAL, PULMONARY, AND NEURONAL SYNDROMES WHILE AVOIDING A REBOUND” (CARDIORENTIS AG, priority 2010, published 2018), which cites them from elsewhere.

One series deals with dogs. The following applies: dogs (Riegger et al., 1990).
Series [1] deals with patients with chronic congestive heart failure. The conditions noted are these: 10-hour infusion, 15 ng/kg/min.
The test system of series [2] is patients with chronic congestive heart failure / acute decompensated heart failure.

On to urodilatin, for which the “effect compared to other natriuretic peptides, such as ANP” value in the series with dogs is “better effect in dogs”. Besides, the “central venous pressure (CVP)” value in series [1] (NYHA III chronic congestive heart failure (Eisner et al., 1995)) is “increases slightly already after 5 hours of infusion”. In series [1] (chronic congestive heart failure (Eisner et al., 1995)), the urine flow result is listed as “loss of action after 8 hours of infusion”. Besides, the “changes of the cardiac index (CI)” value in series [2] (15 and 30 ng/kg/min (Mitrovic et al., 2006)) is given as “significant increase”. Further, the “changes of the baseline in pulmonary capillary wedge pressure (PCWP)” value in series [2] (15 and 30 ng/kg/min, compared with the placebo group (Mitrovic et al., 2006)) is “significant reductions”. In series [2] (after 6 to 8 hours of infusion (Mitrovic et al., 2006, FIG. 2A)), the “pulmonary capillary wedge pressure (PCWP), loss of effect during infusion” value was “slight increase of PCWP”. Besides, in series [2] (after 6 to 8 hours of infusion (Mitrovic et al., 2006, FIG. 2C)), the “cardiac index (CI), loss of effect during infusion” value is recorded as “partial drop of CI”. Also, the “symptoms, morbidity and mortality” value in series [2] (all doses, acute decompensated heart failure (Mitrovic et al., 2005 and 2006)) is “significantly improved”.
